This note sets out measurements from paper PMC11530122, “Mutant induced neurons and humanized mice enable identification of Niemann-Pick type C1 proteostatic therapies” (JCI Insight, 2024).

This assay concerns the target T1, NPC1 (Homo sapiens, UniProt O15118).
T1 construct: full-length WT human NPC1, C-terminal Strep tag, in peptidiscs
T1 sequence (O15118 23-1278): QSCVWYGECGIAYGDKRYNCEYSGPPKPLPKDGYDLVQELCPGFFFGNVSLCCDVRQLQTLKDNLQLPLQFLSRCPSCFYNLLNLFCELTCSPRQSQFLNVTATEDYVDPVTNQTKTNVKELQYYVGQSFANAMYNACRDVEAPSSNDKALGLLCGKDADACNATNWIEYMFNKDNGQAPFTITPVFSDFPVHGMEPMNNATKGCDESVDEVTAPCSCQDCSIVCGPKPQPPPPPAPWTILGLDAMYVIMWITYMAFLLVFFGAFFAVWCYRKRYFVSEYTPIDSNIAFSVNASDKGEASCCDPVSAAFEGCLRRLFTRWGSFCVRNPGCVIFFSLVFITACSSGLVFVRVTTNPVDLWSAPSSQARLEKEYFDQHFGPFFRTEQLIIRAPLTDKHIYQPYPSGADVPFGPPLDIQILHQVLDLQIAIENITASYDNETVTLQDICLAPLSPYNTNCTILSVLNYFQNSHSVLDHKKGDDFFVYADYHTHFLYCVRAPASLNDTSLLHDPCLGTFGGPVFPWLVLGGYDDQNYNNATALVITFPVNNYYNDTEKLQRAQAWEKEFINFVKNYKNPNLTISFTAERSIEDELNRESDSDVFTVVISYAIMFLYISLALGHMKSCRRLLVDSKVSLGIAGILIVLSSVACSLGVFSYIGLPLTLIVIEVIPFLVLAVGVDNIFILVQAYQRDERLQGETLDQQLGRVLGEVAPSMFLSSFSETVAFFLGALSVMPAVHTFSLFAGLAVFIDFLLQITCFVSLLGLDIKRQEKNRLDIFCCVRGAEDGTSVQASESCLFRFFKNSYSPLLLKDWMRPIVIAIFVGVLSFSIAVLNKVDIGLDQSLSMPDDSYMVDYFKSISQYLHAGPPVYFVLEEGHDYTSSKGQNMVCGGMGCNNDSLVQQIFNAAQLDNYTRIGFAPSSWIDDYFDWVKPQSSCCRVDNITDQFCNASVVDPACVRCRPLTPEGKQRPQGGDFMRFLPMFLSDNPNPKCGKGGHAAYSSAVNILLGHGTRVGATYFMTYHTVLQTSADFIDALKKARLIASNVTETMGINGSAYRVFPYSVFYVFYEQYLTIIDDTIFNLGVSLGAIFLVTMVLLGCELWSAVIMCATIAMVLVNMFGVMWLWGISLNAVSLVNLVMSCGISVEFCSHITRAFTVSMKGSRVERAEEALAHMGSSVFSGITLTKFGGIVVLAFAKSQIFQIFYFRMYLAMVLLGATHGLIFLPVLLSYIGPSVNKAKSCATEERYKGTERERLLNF
Kind of assay: microscale thermophoresis; nanoDSF thermal stability with purified NPC1 (EC50 approximately […]). It counts as binding.

For the substance mo56-hydroxycholesterol [mo56Hc], a half-maximal effect (EC50) was put at 177 nM.
